ChEMBL document CHEMBL3431459, “Roche carnitine palmitoyltransferase modulator screening data (supplementary data associated with the publication CHEMBL2216752)”
Converted amounts (≈) assume the structure as drawn.

What was measured:
[1] = molecular target: T1, Carnitine O-palmitoyltransferase 2, mitochondrial (Rattus norvegicus, UniProt P18886); test: (§1) SUPPLEMENTARY: Inhibition of Carnitine palmitoyltransferase 2
T1 sequence (P18886 whole entry): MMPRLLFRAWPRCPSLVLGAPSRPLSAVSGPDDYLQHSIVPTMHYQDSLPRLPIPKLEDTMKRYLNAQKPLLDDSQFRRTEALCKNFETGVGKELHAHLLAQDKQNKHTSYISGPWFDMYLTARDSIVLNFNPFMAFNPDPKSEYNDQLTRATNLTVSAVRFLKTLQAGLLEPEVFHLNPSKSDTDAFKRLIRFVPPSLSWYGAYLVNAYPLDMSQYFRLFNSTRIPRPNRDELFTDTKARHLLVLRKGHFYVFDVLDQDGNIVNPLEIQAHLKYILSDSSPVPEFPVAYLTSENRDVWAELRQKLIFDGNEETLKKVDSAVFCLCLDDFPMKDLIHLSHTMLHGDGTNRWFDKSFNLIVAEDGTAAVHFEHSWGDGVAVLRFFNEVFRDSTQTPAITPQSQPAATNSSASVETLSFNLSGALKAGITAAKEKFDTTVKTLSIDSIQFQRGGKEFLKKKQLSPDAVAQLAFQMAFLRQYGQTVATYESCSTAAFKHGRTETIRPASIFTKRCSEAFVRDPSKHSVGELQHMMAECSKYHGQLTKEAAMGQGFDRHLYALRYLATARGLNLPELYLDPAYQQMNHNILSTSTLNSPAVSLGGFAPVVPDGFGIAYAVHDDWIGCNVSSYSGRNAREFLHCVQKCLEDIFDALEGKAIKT

[2] = molecular target: T2, Carnitine O-palmitoyltransferase 2, mitochondrial (Homo sapiens, UniProt P23786); test: as §1
T2 sequence (P23786 whole entry): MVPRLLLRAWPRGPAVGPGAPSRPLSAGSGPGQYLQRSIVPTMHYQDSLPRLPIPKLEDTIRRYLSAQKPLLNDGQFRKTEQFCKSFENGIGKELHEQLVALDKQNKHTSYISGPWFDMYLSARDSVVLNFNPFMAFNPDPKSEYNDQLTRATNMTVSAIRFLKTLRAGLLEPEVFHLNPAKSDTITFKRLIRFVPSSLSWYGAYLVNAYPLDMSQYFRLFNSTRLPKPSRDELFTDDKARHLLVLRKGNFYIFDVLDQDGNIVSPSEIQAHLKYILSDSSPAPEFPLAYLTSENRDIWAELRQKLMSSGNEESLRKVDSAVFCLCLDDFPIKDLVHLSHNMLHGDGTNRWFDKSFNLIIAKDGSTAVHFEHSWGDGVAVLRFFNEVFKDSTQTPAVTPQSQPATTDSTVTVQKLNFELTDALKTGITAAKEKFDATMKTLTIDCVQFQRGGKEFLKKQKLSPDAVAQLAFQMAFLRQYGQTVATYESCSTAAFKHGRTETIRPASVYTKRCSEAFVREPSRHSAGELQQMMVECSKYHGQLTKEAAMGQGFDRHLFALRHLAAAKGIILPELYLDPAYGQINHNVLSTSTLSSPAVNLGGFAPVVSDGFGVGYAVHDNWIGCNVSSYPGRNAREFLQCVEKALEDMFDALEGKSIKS

[3] = molecular target: T3, Carnitine O-palmitoyltransferase 1, muscle isoform (Homo sapiens, UniProt Q92523); test: SUPPLEMENTARY: Inhibition of Carnitine palmitoyltransferase 1, muscle isoform; set-up: species or system Muscle tissue
T3 sequence (Q92523 whole entry): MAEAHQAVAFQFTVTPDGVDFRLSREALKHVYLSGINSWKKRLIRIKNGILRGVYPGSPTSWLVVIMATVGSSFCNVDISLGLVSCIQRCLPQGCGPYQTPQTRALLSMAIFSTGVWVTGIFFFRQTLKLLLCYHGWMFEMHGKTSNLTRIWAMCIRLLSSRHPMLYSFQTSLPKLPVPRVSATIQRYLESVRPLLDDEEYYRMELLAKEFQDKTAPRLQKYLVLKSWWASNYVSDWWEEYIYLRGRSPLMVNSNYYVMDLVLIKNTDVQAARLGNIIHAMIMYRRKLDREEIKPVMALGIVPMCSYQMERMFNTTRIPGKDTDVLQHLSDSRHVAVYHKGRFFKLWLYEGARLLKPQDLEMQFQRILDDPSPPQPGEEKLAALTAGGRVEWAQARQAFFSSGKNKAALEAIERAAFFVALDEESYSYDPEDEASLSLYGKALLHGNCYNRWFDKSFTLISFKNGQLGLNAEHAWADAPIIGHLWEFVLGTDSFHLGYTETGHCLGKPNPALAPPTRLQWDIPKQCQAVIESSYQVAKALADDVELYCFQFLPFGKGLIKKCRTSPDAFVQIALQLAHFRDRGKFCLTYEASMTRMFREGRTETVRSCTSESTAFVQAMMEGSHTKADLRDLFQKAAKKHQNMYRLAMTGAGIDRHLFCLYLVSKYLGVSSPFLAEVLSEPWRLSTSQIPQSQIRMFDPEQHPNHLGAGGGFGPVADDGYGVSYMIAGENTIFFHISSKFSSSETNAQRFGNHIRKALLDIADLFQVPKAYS

[4] = SUPPLEMENTARY: PAMPA permeability assay; format: physicochemical; details: read-out: Permeability
[5] = molecular target: T4, Carnitine O-palmitoyltransferase 1, liver isoform (Rattus norvegicus, UniProt P32198); test: (§2) SUPPLEMENTARY: Inhibition of Carnitine palmitoyltransferase 1, liver isoform
T4 sequence (P32198 whole entry): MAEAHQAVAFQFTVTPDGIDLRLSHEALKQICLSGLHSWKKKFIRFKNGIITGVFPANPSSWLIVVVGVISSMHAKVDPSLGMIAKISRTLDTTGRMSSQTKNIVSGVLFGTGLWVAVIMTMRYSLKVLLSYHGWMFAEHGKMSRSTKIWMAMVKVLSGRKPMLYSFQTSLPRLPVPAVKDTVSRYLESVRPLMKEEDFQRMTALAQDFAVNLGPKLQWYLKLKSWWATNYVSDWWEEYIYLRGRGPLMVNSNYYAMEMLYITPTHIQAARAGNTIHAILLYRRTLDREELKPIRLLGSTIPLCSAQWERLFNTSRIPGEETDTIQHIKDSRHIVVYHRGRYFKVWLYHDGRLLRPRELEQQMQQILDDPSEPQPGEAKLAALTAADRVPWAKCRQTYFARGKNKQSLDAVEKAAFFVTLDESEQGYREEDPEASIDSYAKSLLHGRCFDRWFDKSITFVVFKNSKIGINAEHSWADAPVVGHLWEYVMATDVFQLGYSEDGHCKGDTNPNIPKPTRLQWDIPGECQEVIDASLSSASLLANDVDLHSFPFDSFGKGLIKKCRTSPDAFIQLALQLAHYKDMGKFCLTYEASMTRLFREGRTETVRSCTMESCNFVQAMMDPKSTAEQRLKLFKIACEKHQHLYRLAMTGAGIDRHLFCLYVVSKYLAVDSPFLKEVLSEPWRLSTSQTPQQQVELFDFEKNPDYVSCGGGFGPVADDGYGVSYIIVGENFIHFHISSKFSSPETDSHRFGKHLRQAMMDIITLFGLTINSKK

[6] = molecular target: T5, Carnitine O-palmitoyltransferase 1, liver isoform (Homo sapiens, UniProt P50416); test: as §2
T5 sequence (P50416 whole entry): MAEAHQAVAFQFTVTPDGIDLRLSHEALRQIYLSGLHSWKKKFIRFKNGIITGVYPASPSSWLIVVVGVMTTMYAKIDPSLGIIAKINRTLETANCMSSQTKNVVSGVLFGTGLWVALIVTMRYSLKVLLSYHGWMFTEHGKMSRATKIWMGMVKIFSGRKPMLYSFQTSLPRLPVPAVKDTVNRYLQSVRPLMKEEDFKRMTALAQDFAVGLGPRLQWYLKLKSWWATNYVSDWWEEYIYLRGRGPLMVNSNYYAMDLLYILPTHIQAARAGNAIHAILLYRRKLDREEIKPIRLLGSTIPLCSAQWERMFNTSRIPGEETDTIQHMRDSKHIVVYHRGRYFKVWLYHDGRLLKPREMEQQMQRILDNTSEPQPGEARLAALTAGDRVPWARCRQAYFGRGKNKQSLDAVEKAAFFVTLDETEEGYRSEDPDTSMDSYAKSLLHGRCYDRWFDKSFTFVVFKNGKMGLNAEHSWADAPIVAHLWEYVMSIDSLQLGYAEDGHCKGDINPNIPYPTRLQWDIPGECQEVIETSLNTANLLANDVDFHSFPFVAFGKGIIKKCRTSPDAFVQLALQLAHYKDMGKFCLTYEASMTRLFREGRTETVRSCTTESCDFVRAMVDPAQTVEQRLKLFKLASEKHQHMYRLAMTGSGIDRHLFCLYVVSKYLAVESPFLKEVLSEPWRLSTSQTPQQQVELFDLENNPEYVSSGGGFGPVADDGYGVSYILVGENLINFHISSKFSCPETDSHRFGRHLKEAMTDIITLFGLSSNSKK

[7] = SUPPLEMENTARY: Lyophilisation Solubility Assay (LYSA); format: physicochemical; details: read-out: Kinetic_solubility
[8] = SUPPLEMENTARY: Lipophilicity (log D) Determination by high-throughput shake-flask; format: physicochemical; details: octanol/water

Row | SMILES | IC50 [1] [nM] | IC50 [2] [nM] | IC50 [3] [nM] | Papp [4] [×10⁻⁶ cm/s] | IC50 [5] [nM] | IC50 [6] [nM] | solubility kinetic [7] [µg/mL] | logD [8]
1 | COc1ccc(Cl)cc1S(=O)(=O)N1COc2c(C)cc(C(=O)Nc3ccc(C(=O)O)cc3)cc21 | 2010 | 312 | 35900 | 1.85 | 79.4 | 78.2 | 13 (≈ 25.8 µM) | 1.32
2 | Cc1cc(C)cc(S(=O)(=O)c2nn(CCC(=O)O)c3ccc(C(=O)Nc4ccccc4)cc23)c1 | > 100000 | > 100000 | > 100000 | 0.91 | 22.2 | 27 | 8 (≈ 16.8 µM) | 1.94
3 | COc1ccc(Cl)cc1S(=O)(=O)c1c2cc(C(=O)Nc3ccc(C(=O)O)cc3)ccc2nn1C | > 100000 | > 100000 | > 100000 | 2.25 | 56.3 | 60.1 | 36 (≈ 72 µM) | 2.41
4 | O=C(Nc1ccc(-c2nnn[nH]2)cc1)c1cccc(NS(=O)(=O)c2cccc(Cl)c2)c1 | > 100000 | 54600 | 226 | 0.0275 | 21.8 | 20.1 | 16 (≈ 35.2 µM) | 0.5
5 | Cc1cc(C)cc(S(=O)(=O)N2CCc3ccc(C(=O)Nc4nc(CC(=O)O)cs4)cc32)c1 | > 100000 | > 100000 | 531 | 2.22 | 32 | 16.7 | 5 (≈ 10.6 µM) | 2.37
6 | CC(=O)Nc1ccc(-n2nnc([C@H]3CCCCN3C(=O)COc3ccccc3)n2)cc1 | 78300 | 49700 | > 100000 | 2.71 | 475 | 108 | 50 (≈ 119 µM) | 3.14
7 | Cc1cc(-c2n[nH]c([C@H]3CCCCN3C(=O)COc3ccccc3)n2)n(C)n1 | > 100000 | > 100000 | > 100000 | 5.2 | 555 | 511 | 129 (≈ 339 µM) | 2.65
8 | O=C(COc1ccccc1)N1CCCC[C@@H]1c1noc(C2CCCCC2)n1 | > 100000 | 47600 | > 100000 | 0.965 | 664 | 86.5 | < 1 | 3.31
9 | COc1ccc(Cl)cc1S(=O)(=O)N1CCOc2c(F)cc(C(=O)Nc3nc(CC(=O)O)cs3)cc21 | > 100000 | > 100000 | 741 | 2.43 | 33.8 | 23.9 | 10 (≈ 18.5 µM) | 0.28
10 | CCCN(c1cc(C(=O)Nc2nc(CC(=O)O)cs2)cc2c1OCO2)S(=O)(=O)c1cc(Cl)ccc1OC | > 100000 | > 100000 | 622 | 3.58 | 131 | 124 | 108 (≈ 190 µM) | 2.72
11 | CCOc1ccc(C(=O)Nc2ccc(C(=O)O)c(F)c2)cc1N(CCS(=O)O)S(=O)(=O)c1cc(Cl)ccc1OC | > 100000 | > 100000 | 27700 | 0.07 | 140 | 146 | > 685 | -1.31
12 | COc1ccc(Cl)cc1S(=O)(=O)N1CCOc2c(Cl)cc(C(=O)Nc3ncc(CC(=O)O)s3)cc21 | > 100000 | > 100000 | 685 | 3.12 | 37.2 | 68.8 | 5 (≈ 8.95 µM) | 2.27
13 | CC1(C)NC(=O)N(c2ccc(Cl)c(-c3nc([C@H]4CCCCN4C(=O)COc4ccccc4)no3)c2)C1=O | 21700 | 6090 | 22700 | 0.49 | 247 | 91.2 | < 1 | 3.29
